Here are results for 30 molecules from article PMC9267128, “New 2-[(4-Amino-6-N-substituted-1,3,5-triazin-2-yl)methylthio]-N-(imidazolidin-2-ylidene)-4-chloro-5-methylbenzenesulfonamide Derivatives, Design, Synthesis and Anticancer Evaluation” (International Journal of Molecular Sciences, 2022).

Experiment [1] has as its system HCT-116 (colon cancer). The experiment is described as follows: MTT cell viability assay, HCT-116. In kind it is cell-based, human. Conditions: Homo sapiens, HCT-116, 72 h, MTT assay, 72 h of incubation. As for the experimental part: (§1) Analysis was performed using an MTT assay after 72 h of incubation.
(§2) All chemicals, if not stated otherwise, were obtained from Sigma–Aldrich (St. Louis, MO, USA). The HCT-116 cell line was purchased from ATCC (ATCC-No: CCL-247), while the MCF-7, HeLa and HaCaT cell lines were purchased from Cell Lines Services (Eppelheim, Germany). Cells were cultured in Dulbecco’s modified Eagle’s medium (DMEM) supplemented with 10% fetal bovine serum, 2 mM glutamine, 100 units/mL penicillin and 100 µg/mL streptomycin. Cultures were maintained in a humidified atmosphere with 5% carbon dioxide at 37 °C in an incubator (Heraceus, HeraCell).
(§3) Cell viability was examined using the MTT [3-(4,5-dimethylthiazol-2-yl)-2,5-diphenyltetrazolium bromide] assay. Cells were seeded in 96-well plates at a density of 3 × 10^3 cells/well and treated for 72 h with the tested compounds in the concentration range of 1–100 µM. Then, MTT (0.5 mg/mL) was added to the medium and cells were further incubated for 2 h at 37 °C. In the next stage, cells were lysed with DMSO and the absorbance of the formazan solution was measured at 550 nm with a plate reader (1420 multilabel counter, Victor, Jügesheim, Germany). The experiment was performed in triplicate. Values are expressed as the mean ± SD of at least three independent experiments.
For orientation: Tetrazolium dyes change colour on reduction, which living cells bring about.

For experiment [2], the system named is MCF-7 (breast cancer). The experiment is described as follows: MTT cell viability assay, MCF-7. The class given is cell-based, human. The conditions noted are these: Homo sapiens, MCF7, 72 h, MTT assay, 72 h of incubation. As for the experimental part: (§4) Compounds 20–162 were evaluated in vitro for their effects on the viability of three cancer cell lines: HCT-116 (colon cancer), MCF-7 (breast cancer) and HeLa (cervical cancer), as well as the non-cancerous keratinocyte cell line (HaCaT). […] Analysis was performed using an MTT assay after 72 h of incubation.
as §2
as §3, with “experiments. Cisplatin was used as a positive control.” for “experiments.”

Experiment [3] concerns HeLa (cervical cancer). The experiment is described as follows: MTT cell viability assay, HeLa. In kind it is cell-based, human. The conditions noted are these: Homo sapiens, HeLa; MTT assay, 72 h of incubation. As for the experimental part: as §1, §2, §3
The test system of experiment [4] is HaCaT (human keratinocyte cell line). The experiment is described as follows: MTT cell viability assay, non-cancerous HaCaT. In kind it is cell-based. The conditions noted are these: Homo sapiens, HaCaT, 72 h, 72 h of incubation, non-cancerous keratinocytes. As for the experimental part:
as §4, §2
as §3, with “experiments. Cisplatin was used as a positive control.” for “experiments.”

Broadly, the IC50 is the concentration at which inhibition is half-maximal. For the molecule `Cc1cc(S(=O)(=O)N=C2NCCN2Cc2ccc(Br)cc2)c(SCc2nc(N)nc(N3CCN(c4ccccc4)CC3)n2)cc1Cl` [Compound 106], the IC50 was determined as 8.5 ± 0.1 µM in experiment [1], 6.5 ± 0.4 µM in experiment [2], 82 ± 4 µM in experiment [3] and 110 ± 4 µM in experiment [4].
The corresponding values for `Cc1cc(S(=O)(=O)N=C2NCCN2Cc2ccc(F)cc2)c(SCc2nc(N)nc(N3CCCc4ccccc43)n2)cc1Cl` [Compound 84] are 9 ± 0.5 µM, 7 ± 0.1 µM, 15 ± 0.6 µM and 27 ± 1 µM.
In the same order, the values of `Cc1cc(S(=O)(=O)N=C2NCCN2Cc2ccc(F)cc2)c(SCc2nc(N)nc(N3CCN(C)CC3)n2)cc1Cl` [Compound 91] are 20 ± 1 µM, 13 ± 0.4 µM, 34 ± 2 µM and 54 ± 2 µM.
For the molecule `Cc1cc(S(=O)(=O)N=C2NCCN2Cc2ccccc2)c(SCc2nc(N)nc(N3CCOCC3)n2)cc1Cl` [Compound 46], the IC50 worked out at 21 ± 0.2 µM in experiment [1], 23 ± 0.7 µM in experiment [2] and 37 ± 0.4 µM in experiment [3].
Regarding `Cc1cc(S(=O)(=O)N=C2NCCN2Cc2ccc(F)cc2)c(SCc2nc(N)nc(N3CCN(c4ccccc4)CC3)n2)cc1Cl` [Compound 92], the IC50 in experiment [1] was 7 ± 0.3 µM; in experiment [2], 8 ± 0.4 µM; in experiment [3], 8 ± 0.5 µM; in experiment [4] it was 18 ± 1 µM.
In the same order, the values of `Cc1cc(S(=O)(=O)N=C2NCCN2)c(SCc2nc(N)nc(N3CC=C(c4ccc(F)cc4)CC3)n2)cc1Cl` [Compound 44] are 14 ± 0.5 µM, 16 ± 0.5 µM, 14 ± 0.5 µM and 28 ± 1 µM.
With `Cc1cc(S(=O)(=O)N=C2NCCN2)c(SCc2nc(N)nc(N3CCN(c4ccccc4F)CC3)n2)cc1Cl` [Compound 33], the IC50 in experiment [1] is 19 ± 0.5 µM; in experiment [2], 26 ± 1 µM; in experiment [3] it was 25 ± 1 µM; in experiment [4] it was 41 ± 2 µM.
As to `Cc1cc(S(=O)(=O)N=C2NCCN2)c(SCc2nc(N)nc(N3CCOCC3)n2)cc1Cl` [Compound 21], the IC50 was found to be 350 ± 7 µM in experiment [1], 190 ± 2 µM in experiment [2] and 510 ± 5 µM in experiment [3].
As to `Cc1cc(S(=O)(=O)N=C2NCCN2Cc2ccc(Br)cc2)c(SCc2nc(N)nc(N3CCCc4ccccc43)n2)cc1Cl` [Compound 103], the IC50 was determined as 7 ± 0.1 µM in experiment [1], 6.5 ± 0.3 µM in experiment [2], 16 ± 0.5 µM in experiment [3] and 28 ± 1 µM in experiment [4].
In the same order, the values of `Cc1cc(S(=O)(=O)N=C2NCCN2Cc2ccc(C(F)(F)F)cc2)c(SCc2nc(N)nc(N3CCN(C)CC3)n2)cc1Cl` [Compound 130] are 10.5 ± 0.4 µM, 8 ± 0.3 µM, 17 ± 0.5 µM and 36 ± 1 µM.
The corresponding values for `Cc1cc(S(=O)(=O)N=C2NCCN2Cc2ccc(F)cc2)c(SCc2nc(N)nc(N3CCOCC3)n2)cc1Cl` [Compound 82] are 19 ± 0.8 µM, 12 ± 0.1 µM, 30 ± 1 µM and 54 ± 2 µM.
In the same order, the values of `Cc1cc(S(=O)(=O)N=C2NCCN2Cc2ccc(F)cc2)c(SCc2nc(N)nc(N(C)c3ccccc3)n2)cc1Cl` [Compound 89] are 14 ± 0.7 µM, 18 ± 1 µM, 17 ± 0.6 µM and 31 ± 1 µM.
On to `Cc1cc(S(=O)(=O)N=C2NCCN2Cc2cccc3ccccc23)c(SCc2nc(N)nc(Nc3ccccc3)n2)cc1Cl` [Compound 75], for which the IC50 in experiment [1] worked out at 30 ± 2 µM; in experiment [2], 8 ± 0.5 µM; in experiment [3] it was 77 ± 5 µM; in experiment [4], 110 ± 5 µM.
Turning to `Cc1cc(S(=O)(=O)N=C2NCCN2)c(SCc2nc(N)nc(N3CCN(c4ccccc4)CC3)n2)cc1Cl` [Compound 31], the IC50 in experiment [3] worked out at 16 ± 0.1 µM; in experiment [4], 26 ± 1 µM.
As for `Cc1cc(S(=O)(=O)N=C2NCCN2Cc2ccc(C(F)(F)F)cc2)c(SCc2nc(N)nc(N3CCN(C(c4ccccc4)c4ccccc4)CC3)n2)cc1Cl` [Compound 141], the IC50 came to 7.5 ± 0.2 µM in experiment [1], 9.5 ± 0.5 µM in experiment [2], 45 ± 2 µM in experiment [3] and 180 ± 9 µM in experiment [4].
In the same order, the values of `Cc1cc(S(=O)(=O)N=C2NCCN2Cc2ccccc2)c(SCc2nc(N)nc(N3CCN(c4ccccc4)CC3)n2)cc1Cl` [Compound 57] are 8 ± 0.1 µM, 8 ± 0.2 µM, 102 ± 2 µM and 48 ± 2 µM.
In the same order, the values of `Cc1cc(S(=O)(=O)N=C2NCCN2Cc2ccc(C(F)(F)F)cc2)c(SCc2nc(N)nc(N3CCN(c4ccccc4F)CC3)n2)cc1Cl` [Compound 133] are 8 ± 0.3 µM, 16 ± 0.5 µM, 14 ± 1 µM and 25 ± 1 µM.
The corresponding values for `Cc1cc(S(=O)(=O)N=C2NCCN2Cc2ccc(C(F)(F)F)cc2)c(SCc2nc(N)nc(N3CCC(Cc4ccccc4)CC3)n2)cc1Cl` [Compound 142] are 4.6 ± 0.1 µM, 6.5 ± 0.3 µM, 14 ± 0.2 µM and 29 ± 1 µM.
`Cc1cc(S(=O)(=O)N=C2NCCN2Cc2cccc3ccccc23)c(SCc2nc(N)nc(N3CCN(Cc4ccccc4)CC3)n2)cc1Cl` [Compound 81]: the IC50 in experiment [1] worked out at 8.4 ± 0.3 µM; in experiment [2], 8 ± 0.5 µM; in experiment [3], 63 ± 1 µM; in experiment [4], 240 ± 12 µM.
In the case of `Cc1cc(S(=O)(=O)N=C2NCCN2)c(SCc2nc(N)nc(N3CCN(Cc4ccccc4)CC3)n2)cc1Cl` [Compound 42], the IC50 in experiment [1] turned out to be 31 ± 1 µM; in experiment [2], 31 ± 2 µM; in experiment [3], 30 ± 1.5 µM; in experiment [4], 61 ± 4 µM.
As for `Cc1cc(S(=O)(=O)N=C2NCCN2Cc2ccc(C(F)(F)F)cc2)c(SCc2nc(N)nc(N3CCN(c4ccccc4)CC3)n2)cc1Cl` [Compound 131], the concentration for half-maximal inhibition (IC50) in experiment [1] was found to be 7 ± 0.2 µM; in experiment [2], 15 ± 0.5 µM; in experiment [3], 13 ± 0.5 µM; in experiment [4], 25 ± 1 µM.
In the same order, the values of `Cc1cc(S(=O)(=O)N=C2NCCN2Cc2ccccc2)c(SCc2nc(N)nc(N3CCN(Cc4ccccc4)CC3)n2)cc1Cl` [Compound 68] are 16 ± 0.5 µM, 16 ± 0.5 µM, 14 ± 0.5 µM and 32 ± 2 µM.
In the same order, the values of `Cc1cc(S(=O)(=O)N=C2NCCN2Cc2ccc(Br)cc2)c(SCc2nc(N)nc(N3CCN(c4ccc(Cl)c(Cl)c4)CC3)n2)cc1Cl` [Compound 110] are 20 ± 0.6 µM, 23 ± 1 µM, 85 ± 5 µM and 123 ± 6 µM.
Turning to `Cc1cc(S(=O)(=O)N=C2NCCN2Cc2cccc(C(F)(F)F)c2)c(SCc2nc(N)nc(N3CCN(Cc4ccccc4)CC3)n2)cc1Cl` [Compound 117], the IC50 came out at 16 ± 0.5 µM in experiment [1], 17 ± 1 µM in experiment [2], 12 ± 0.2 µM in experiment [3] and 36 ± 2 µM in experiment [4].
`Cc1cc(S(=O)(=O)N=C2NCCN2Cc2cccc3ccccc23)c(SCc2nc(N)nc(N3CCN(c4ccc(Cl)c(Cl)c4)CC3)n2)cc1Cl` [Compound 80]: the IC50 in experiment [1] is 79 ± 2 µM; in experiment [2], 89 ± 4 µM; in experiment [3], 98 ± 5 µM.
In the same order, the values of `CC1=NN(c2nc(N)nc(CSc3cc(Cl)c(C)cc3S(=O)(=O)N=C3NCCN3)n2)C(C)(C)C1` [Compound 22] are 140 ± 3 µM, 130 ± 4 µM and 110 ± 4 µM.
Consider `Cc1cc(S(=O)(=O)N=C2NCCN2)c(SCc2nc(N)nc(N3CCc4ccccc43)n2)cc1Cl` [Compound 23], for which the results for the IC50 in experiment [1], in experiment [2] and in experiment [3] were 142 ± 4 µM, 130 ± 3 µM and 150 ± 2 µM, respectively.
The corresponding values for `Cc1cc(S(=O)(=O)N=C2NCCN2)c(SCc2nc(N)nc(N(C)C)n2)cc1Cl` [Compound 20] are 110 ± 2 µM, 220 ± 6 µM and 115 ± 7 µM.
The corresponding values for `Cc1cc(S(=O)(=O)N=C2NCCN2)c(SCc2nc(N)nc(N(C)c3ccccc3)n2)cc1Cl` [Compound 28] are 58 ± 0.6 µM, 45 ± 0.5 µM and 80 ± 1 µM.
In the same order, the values of `Cc1cc(S(=O)(=O)N=C2NCCN2Cc2cccc3ccccc23)c(SCc2nc(N)nc(N3CCN(c4ccc(Cl)cc4)CC3)n2)cc1Cl` [Compound 79] are 94 ± 2 µM, 98 ± 5 µM and 88 ± 3 µM.
